Results published in PubChem BioAssay (NCI).
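Assay format: 96-well plates, 48-hour exposure. GI50: concentration for 50% inhibition of growth. TGI denotes the concentration required for complete inhibition of growth.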

What was measured:
Test in all cases: NCI anticancer screen, dose series, 48 h
NCI-H23 lung = system: NCI-H23 lung
A549 NSCLC = system: A549 NSCLC
UO-31 renal = system: UO-31 renal
MCF7 breast = system: MCF7 breast
SNB-19 CNS = system: SNB-19 CNS
MDA-MB-231 breast = system: MDA-MB-231 breast
MALME-3M melanoma = system: MALME-3M melanoma
SNB-75 CNS = system: SNB-75 CNS
A498 renal = system: A498 renal
BT-549 breast = system: BT-549 breast
M14 melanoma = system: M14 melanoma
IGROV1 ovarian = system: IGROV1 ovarian
SF-295 CNS = system: SF-295 CNS
CCRF-CEM leukemia = system: CCRF-CEM leukemia
HCC-2998 colon = system: HCC-2998 colon
MOLT-4 leukemia = system: MOLT-4 leukemia
DU-145 prostate = system: DU-145 prostate
LOX IMVI melanoma = system: LOX IMVI melanoma
CAKI-1 renal = system: CAKI-1 renal
UACC-257 melanoma = system: UACC-257 melanoma
OVCAR-8 ovarian = system: OVCAR-8 ovarian
U251 CNS = system: U251 CNS
OVCAR-5 ovarian = system: OVCAR-5 ovarian
SW-620 colon = system: SW-620 colon
UACC-62 melanoma = system: UACC-62 melanoma
K-562 leukemia = system: K-562 leukemia
786-0 renal = system: 786-0 renal
SK-MEL-28 melanoma = system: SK-MEL-28 melanoma
SK-MEL-5 melanoma = system: SK-MEL-5 melanoma
OVCAR-3 ovarian = system: OVCAR-3 ovarian
NCI-H460 lung = system: NCI-H460 lung
NCI/ADR-RES ovarian = system: NCI/ADR-RES ovarian
COLO 205 colon = system: COLO 205 colon
HCT-15 colon = system: HCT-15 colon
SF-268 CNS = system: SF-268 CNS
SF-539 CNS = system: SF-539 CNS
HL-60(TB) leukemia = system: HL-60(TB) leukemia
MDA-MB-435 = system: MDA-MB-435
SN12C renal = system: SN12C renal
ACHN renal = system: ACHN renal
EKVX NSCLC = system: EKVX NSCLC
RXF 393 renal = system: RXF 393 renal
PC-3 prostate = system: PC-3 prostate
OVCAR-4 ovarian = system: OVCAR-4 ovarian
HT29 colon = system: HT29 colon
TK-10 renal = system: TK-10 renal
NCI-H226 lung = system: NCI-H226 lung
KM12 colon = system: KM12 colon
T-47D breast = system: T-47D breast
HOP-62 NSCLC = system: HOP-62 NSCLC
NCI-H522 lung = system: NCI-H522 lung
RPMI-8226 leukemia = system: RPMI-8226 leukemia
HS 578T breast = system: HS 578T breast
HOP-92 NSCLC = system: HOP-92 NSCLC
HCT-116 colon = system: HCT-116 colon
SK-OV-3 ovarian = system: SK-OV-3 ovarian

Question: What does the source list for `N#Cc1c(NC(=O)c2ccc(F)cc2)sc2c1CCCC2`?
Answer: GI50 (NCI-H23 lung): > 25 µM; TGI (NCI-H23 lung): > 25 µM; GI50 (A549 NSCLC): > 25 µM; TGI (A549 NSCLC): > 25 µM; GI50 (UO-31 renal): > 25 µM; TGI (UO-31 renal): > 25 µM; GI50 (MCF7 breast): > 25 µM; TGI (MCF7 breast): > 25 µM; GI50 (SNB-19 CNS): > 25 µM; TGI (SNB-19 CNS): > 25 µM; GI50 (MDA-MB-231 breast): > 25 µM; TGI (MDA-MB-231 breast): > 25 µM; GI50 (MALME-3M melanoma): > 25 µM; TGI (MALME-3M melanoma): > 25 µM; GI50 (SNB-75 CNS): > 25 µM; TGI (SNB-75 CNS): > 25 µM; GI50 (A498 renal): > 25 µM; TGI (A498 renal): > 25 µM; GI50 (BT-549 breast): > 25 µM; TGI (BT-549 breast): > 25 µM; GI50 (M14 melanoma): > 25 µM; TGI (M14 melanoma): > 25 µM; GI50 (IGROV1 ovarian): > 25 µM; TGI (IGROV1 ovarian): > 25 µM; GI50 (SF-295 CNS): > 25 µM; TGI (SF-295 CNS): > 25 µM; GI50 (CCRF-CEM leukemia): > 25 µM; TGI (CCRF-CEM leukemia): > 25 µM; GI50 (HCC-2998 colon): > 25 µM; TGI (HCC-2998 colon): > 25 µM; GI50 (MOLT-4 leukemia): > 25 µM; TGI (MOLT-4 leukemia): > 25 µM; GI50 (DU-145 prostate): > 25 µM; TGI (DU-145 prostate): > 25 µM; GI50 (LOX IMVI melanoma): > 25 µM; TGI (LOX IMVI melanoma): > 25 µM; GI50 (CAKI-1 renal): > 25 µM; TGI (CAKI-1 renal): > 25 µM; GI50 (UACC-257 melanoma): > 25 µM; TGI (UACC-257 melanoma): > 25 µM; GI50 (OVCAR-8 ovarian): > 25 µM; TGI (OVCAR-8 ovarian): > 25 µM; GI50 (U251 CNS): > 25 µM; TGI (U251 CNS): > 25 µM; GI50 (OVCAR-5 ovarian): > 25 µM; TGI (OVCAR-5 ovarian): > 25 µM; GI50 (SW-620 colon): > 25 µM; TGI (SW-620 colon): > 25 µM; GI50 (UACC-62 melanoma): > 25 µM; TGI (UACC-62 melanoma): > 25 µM; GI50 (K-562 leukemia): > 25 µM; TGI (K-562 leukemia): > 25 µM; GI50 (786-0 renal): > 25 µM; TGI (786-0 renal): > 25 µM; GI50 (SK-MEL-28 melanoma): > 25 µM; TGI (SK-MEL-28 melanoma): > 25 µM; GI50 (SK-MEL-5 melanoma): > 25 µM; TGI (SK-MEL-5 melanoma): > 25 µM; GI50 (OVCAR-3 ovarian): > 25 µM; TGI (OVCAR-3 ovarian): > 25 µM; GI50 (NCI-H460 lung): > 25 µM; TGI (NCI-H460 lung): > 25 µM; GI50 (NCI/ADR-RES ovarian): > 25 µM; TGI (NCI/ADR-RES ovarian): > 25 µM; GI50 (COLO 205 colon): > 25 µM; TGI (COLO 205 colon): > 25 µM; GI50 (HCT-15 colon): > 25 µM; TGI (HCT-15 colon): > 25 µM; GI50 (SF-268 CNS): > 25 µM; TGI (SF-268 CNS): > 25 µM; GI50 (SF-539 CNS): > 25 µM; TGI (SF-539 CNS): > 25 µM; GI50 (HL-60(TB) leukemia): > 25 µM; TGI (HL-60(TB) leukemia): > 25 µM; GI50 (MDA-MB-435): > 25 µM; TGI (MDA-MB-435): > 25 µM; GI50 (SN12C renal): > 25 µM; TGI (SN12C renal): > 25 µM; GI50 (ACHN renal): > 25 µM; TGI (ACHN renal): > 25 µM; GI50 (EKVX NSCLC): > 25 µM; TGI (EKVX NSCLC): > 25 µM; GI50 (RXF 393 renal): > 25 µM; TGI (RXF 393 renal): > 25 µM; GI50 (PC-3 prostate): > 25 µM; TGI (PC-3 prostate): > 25 µM; GI50 (OVCAR-4 ovarian): > 25 µM; TGI (OVCAR-4 ovarian): > 25 µM; GI50 (HT29 colon): > 25 µM; TGI (HT29 colon): > 25 µM; GI50 (TK-10 renal): > 25 µM; TGI (TK-10 renal): > 25 µM; GI50 (NCI-H226 lung): > 25 µM; TGI (NCI-H226 lung): > 25 µM; GI50 (KM12 colon): > 25 µM; TGI (KM12 colon): > 25 µM; GI50 (T-47D breast): > 25 µM; TGI (T-47D breast): > 25 µM; GI50 (HOP-62 NSCLC): > 25 µM; TGI (HOP-62 NSCLC): > 25 µM; GI50 (NCI-H522 lung): > 25 µM; TGI (NCI-H522 lung): > 25 µM; GI50 (RPMI-8226 leukemia): > 25 µM; TGI (RPMI-8226 leukemia): > 25 µM; GI50 (HS 578T breast): > 25 µM; TGI (HS 578T breast): > 25 µM; GI50 (HOP-92 NSCLC): > 25 µM; TGI (HOP-92 NSCLC): > 25 µM; GI50 (HCT-116 colon): > 25 µM; TGI (HCT-116 colon): > 25 µM; GI50 (SK-OV-3 ovarian): > 25 µM; TGI (SK-OV-3 ovarian): > 25 µM
